Here are results for 23 compounds from patent US10577332B2, “Tetrazole derivatives” (Hoffmann-La Roche Inc., priority 2015, dated 2020).

In one data set the target is T1, human EAAT3 (Homo sapiens, UniProt P43005).
T1 construct: expressed in transfected cells
T1 sequence (P43005 1-524): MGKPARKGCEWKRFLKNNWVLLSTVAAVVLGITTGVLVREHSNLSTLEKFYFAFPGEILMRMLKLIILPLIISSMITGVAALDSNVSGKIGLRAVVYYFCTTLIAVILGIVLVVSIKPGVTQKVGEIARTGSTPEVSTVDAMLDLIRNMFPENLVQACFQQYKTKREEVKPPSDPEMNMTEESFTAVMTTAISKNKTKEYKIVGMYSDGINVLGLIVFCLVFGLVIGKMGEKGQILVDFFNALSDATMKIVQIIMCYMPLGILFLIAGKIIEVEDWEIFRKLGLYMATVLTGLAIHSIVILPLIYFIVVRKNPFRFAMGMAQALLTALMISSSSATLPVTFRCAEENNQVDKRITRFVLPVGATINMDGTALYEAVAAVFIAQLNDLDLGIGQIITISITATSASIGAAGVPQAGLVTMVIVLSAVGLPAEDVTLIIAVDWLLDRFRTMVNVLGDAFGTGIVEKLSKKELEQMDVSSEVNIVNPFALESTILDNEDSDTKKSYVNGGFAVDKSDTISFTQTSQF
The data set is described as follows: FLIPR Membrane Potential (FMP) assay. Type of data set: cell-based. The conditions noted are these: HEK-293 cells stably expressing human EAAT3; antagonist applied 15 min before L-glutamate at EC80; Kb by Cheng-Prusoff from IC50. The procedure:
The FLIPR Membrane Potential (FMP) Assay
HEK-293 cells stably expressing human EAAT3 were seeded at 55 000 cells/well in growth medium (DMEM glutamate free (Invitrogen 11960-044), 1% Pen Strep (10 ml/l GIBCO BRL No 15140-023), 10% FCS non dialysed heat inactivated, 5 mg/l puromycin) in poly-D-lysine treated 96-well black microtiter plates with clear-bottom. After 24 h, the growth medium was removed and 100 μl/well of Krebs buffer (140 mM NaCl, 4.7 mM KCl, 2.5 mM CaCl2, 1.2 mM MgCl2, 11 mM HEPES, 10 mM D-glucose, pH=7.4) added. The cells were then loaded by adding 100 μl/well FMP assay dye (FLIPR Membrane Potential assay reagent, Molecular Devices). The 96-well plates were then incubated at 37° C. for 1 h. The depolarization of the cells will cause more dye to enter in the cells, where it will bind to intracellular proteins and lipids and cause an increase in the fluorescence signal. Antagonist potency at human EAAT3 was determined by using L-glutamate as agonist at a concentration which gives 80% of the maximum response. The antagonists were applied 15 min before the application of the agonist L-glutamate. The assays were performed at room temperature and measurements done by using a Fluorometric Imaging Plate Reader (FLIPR, Molecular Devices) and filter #2. Responses were measured as peak increase in fluorescence minus basal (i.e. fluorescence without addition of L-glutamate). Kb was determined using the Cheng-Prusoff equation Kb=IC50/[1+(A/EC50)], where IC50 is the concentration of the antagonist producing 50% inhibition, A is the concentration of the agonist against which the IC50 is being determined (at EC80) and EC50 is the concentration of the agonist producing 50% […].

`CC(C)(C)c1nnnn1-c1cc(C(=O)NC(C)(C)C(F)(F)F)cc(-c2ccc(Cl)c(F)c2)c1` [Example 119, 3-(5-tert-Butyltetrazol-1-yl)-5-(4-chloro-3-fluorophenyl)-N-(1,1,1-trifluoro-2-methylpropan-2-yl)-benzamide] came in with a melting point of 222 °C. Besides, the Kb on human EAAT3 was found to be 350 nM.

As for `CCC(C)(C)NC(=O)c1cc(-c2ccc(Cl)cc2)cc(-n2nnnc2C(C)(C)C)c1` [Example 90, 3-(5-tert-Butyltetrazol-1-yl)-5-(4-chlorophenyl)-N-(2-methylbutan-2-yl)-benzamide], the melting point is 119 °C. Also, the Kb on human EAAT3 was 170 nM.

Compound `CC(C)(NC(=O)c1cc(-c2ccc(F)cc2)cc(-n2cnnn2)c1)C1CC1` [Example 21, N-(2-cyclopropylpropan-2-yl)-3-(4-fluorophenyl)-5-(tetrazol-1-yl)-benzamide] returned a melting point of 193 °C. Also, the Kb on human EAAT3 worked out at 960 nM.

`CCC(C)(C)NC(=O)c1cc(-c2ccc(F)cc2)cc(-n2nnnc2C2CC2)c1` [Example 68, 3-(5-Cyclopropyltetrazol-1-yl)-5-(4-fluorophenyl)-N-(2-methylbutan-2-yl)-benzamide] showed a melting point of 74 °C. At human EAAT3, this compound yielded a Kb of 180 nM.

`CC1(NC(=O)c2cc(-c3ccc(Cl)cc3)cc(-n3nnnc3C3CC3)c2)CCS(=O)(=O)C1` (racemic) [Example 57, (RS)-3-(4-Chlorophenyl)-5-(5-cyclopropyltetrazol-1-yl)-N-(3-methyl-1,1-dioxothiolan-3-yl)-benzamide] displayed a melting point of 126 °C. The compound further gave a Kb on human EAAT3 of 350 nM.

Compound `Cc1ccc(-c2cc(C(=O)NC(C)(C)C3CC3)cc(-n3nnnc3C(C)C)c2)cc1` [Example 20, N-(2-Cyclopropylpropan-2-yl)-3-(4-methylphenyl)-5-(5-propan-2-yltetrazol-1-yl)-benzamide] came in with a melting point of 78 °C. Besides, the Kb at human EAAT3 came to 310 nM.

Compound `CC1(NC(=O)c2cc(-c3ccc(Cl)cc3)cc(-n3cnnn3)c2)CCS(=O)(=O)C1` (racemic) [Example 16, (RS)-3-(4-Chlorophenyl)-N-(3-methyl-1,1-dioxothiolan-3-yl)-5-(tetrazol-1-yl)-benzamide] had a melting point of 204 °C. Besides, on human EAAT3, the Kb is 630 nM.

Consider `CC(C)(C)c1nnnn1-c1cc(C(=O)NC(C)(C)C2CC2)cc(-c2ccc(Cl)c(F)c2)c1` [Example 112, 3-(5-tert-Butyltetrazol-1-yl)-5-(4-chloro-3-fluorophenyl)-N-(2-cyclopropylpropan-2-yl)-benzamide], for which the melting point amounted to 106.5 °C. The Kb at human EAAT3 amounted to 530 nM.

Consider `Cc1ccc(-c2cc(C(=O)NC3(C)CCS(=O)(=O)C3)cc(-n3nnnc3C)c2)cc1` (racemic) [Example 24, (RS)-N-(3-Methyl-1,1-dioxothiolan-3-yl)-3-(4-methylphenyl)-5-(5-methyltetrazol-1-yl)-benzamide], for which the melting point was found to be 69 °C. The Kb on human EAAT3 was 380 nM.

The compound `CC(C)(CO)NC(=O)c1cc(-c2ccc(Cl)cc2)cc(-n2nnnc2C(F)(F)F)c1` [Example 76, 3-(4-Chlorophenyl)-N-(1-hydroxy-2-methylpropan-2-yl)-5-[5-(trifluoromethyl)-tetrazol-1-yl]-benzamide] yielded a melting point of 89 °C. Moreover, the Kb at human EAAT3 came to 300 nM.

Compound `CC(C)(C)NC(=O)c1cc(-c2ccc(C3CC3)cc2)cc(-n2nnnc2C(C)(C)C)c1` [Example 107, N-tert-Butyl-3-(5-tert-butyltetrazol-1-yl)-5-(4-cyclopropylphenyl)-benzamide] showed a melting point of 115 °C. Moreover, the Kb on human EAAT3 was determined as 280 nM.

Regarding `CCC(C)(C)NC(=O)c1cc(-c2ccc(OC)cc2)cc(-n2cnnn2)c1` [Example 7, 3-(4-Methoxyphenyl)-N-(2-methylbutan-2-yl)-5-(tetrazol-1-yl)-benzamide], the melting point is 150 °C. Besides, the Kb on human EAAT3 is 410 nM.

For the compound `Cc1ccc(-c2cc(C(=O)NC(C)(C)C)cc(-n3nnnc3C3CC3)c2)cc1` [Example 29, N-tert-Butyl-3-(5-cyclopropyltetrazol-1-yl)-5-(4-methylphenyl)-benzamide], the melting point stood at 91 °C. Also, the Kb on human EAAT3 came to 200 nM.

For `Cc1ccc(-c2cc(C(=O)NC3(C)CCS(=O)(=O)C3)cc(-n3nnnc3C(C)C)c2)cc1` (racemic) [Example 17, (RS)-N-(3-methyl-1,1-dioxothiolan-3-yl)-3-(4-methylphenyl)-5-(5-propan-2-yltetrazol-1-yl)-benzamide], the melting point stood at 112 °C. On human EAAT3, the Kb came out at 250 nM.

The compound `CC(C)(NC(=O)c1cc(-c2ccc(F)cc2)cc(-n2nnnc2C2CC2)c1)C(F)(F)F` [Example 73, 3-(5-Cyclopropyltetrazol-1-yl)-5-(4-fluorophenyl)-N-(1,1,1-trifluoro-2-methylpropan-2-yl)-benzamide] had a melting point of 81 °C. The same compound had a Kb on human EAAT3 of 110 nM.

As for `CCC(C)(C)NC(=O)c1cc(-c2ccc(F)c(F)c2)cc(-n2cnnn2)c1` [Example 39, 3-(3,4-Difluorophenyl)-N-(2-methylbutan-2-yl)-5-(tetrazol-1-yl)-benzamide], the melting point turned out to be 189 °C. Further, the Kb on human EAAT3 was 200 nM.

Regarding `CCC(C)(C)NC(=O)c1cc(-c2ccc(Cl)cc2)cc(-n2nnnc2C)c1` [Example 66, 3-(4-Chlorophenyl)-N-(2-methylbutan-2-yl)-5-(5-methyltetrazol-1-yl)-benzamide], the melting point was 80.5 °C. In addition, the antagonist dissociation constant (Kb) on human EAAT3 was found to be 170 nM.

The compound `CCC(C)(C)NC(=O)c1cc(-c2ccc(C)cc2)cc(-n2nnnc2C(C)C)c1` [Example 10, N-(2-Methylbutan-2-yl)-3-(4-methylphenyl)-5-(5-propan-2-yltetrazol-1-yl)-benzamide] had a melting point of 104 °C. Also, the Kb on human EAAT3 is 230 nM.

`Cc1nnnn1-c1cc(C(=O)NC(C)(C)CO)cc(-c2ccc(F)cc2)c1` [Example 84, 3-(4-Fluorophenyl)-N-(1-hydroxy-2-methylpropan-2-yl)-5-(5-methyltetrazol-1-yl)-benzamide]: the melting point came out at 85 °C. Besides, on human EAAT3, the Kb came to 780 nM.

In the case of `CC(C)c1nnnn1-c1cc(C(=O)NC(C)(C)C)cc(-c2ccc(F)cc2)c1` [Example 61, N-tert-Butyl-3-(4-fluorophenyl)-5-(5-propan-2-yltetrazol-1-yl)-benzamide], the melting point is 85 °C. Besides, the Kb at human EAAT3 came to 230 nM.

For the compound `CCC(C)(C)NC(=O)c1cc(-c2ccc(F)cc2)cc(-n2nnnc2C(C)(C)C)c1` [Example 97, 3-(5-tert-Butyltetrazol-1-yl)-5-(4-fluorophenyl)-N-(2-methylbutan-2-yl)-benzamide], the melting point was 199 °C. The compound also returned a Kb on human EAAT3 of 120 nM.

In turn, `CC(C)c1nnnn1-c1cc(C(=O)NC(C)(C)C2CC2)cc(-c2ccc(Cl)cc2)c1` [Example 44, 3-(4-Chlorophenyl)-N-(2-cyclopropylpropan-2-yl)-5-(5-propan-2-yltetrazol-1-yl)-benzamide] came in with a melting point of 83 °C. Also, the Kb on human EAAT3 was determined as 210 nM.

Regarding `CC(C)(CO)NC(=O)c1cc(-c2ccc(F)cc2)cc(-n2nnnc2C2CC2)c1` [Example 71, 3-(5-Cyclopropyltetrazol-1-yl)-5-(4-fluorophenyl)-N-(1-hydroxy-2-methylpropan-2-yl)-benzamide], the melting point was determined as 80 °C. Further, the Kb at human EAAT3 came to 410 nM.
